Experimental findings from ChEMBL document CHEMBL3507680, “University of Dundee, Gates Library screen for HepG2 cell viability” are described below.

Each structure is given as a SMILES string.

This data set can be described thus: Human HepG2 cell viability assay in 384 well format. Type of data set: toxicity, cell-based. Also on record: dose 125 nL, time 70.5 hour; cytotoxicity at 70.5 h: concentration not given beside the values. The note with it: HepG2 cells, read-out: Inhibition.
Take `N#CCC1CC(c2ccc(F)cc2)=NO1` (stereo not given): the cytotoxicity at 70.5 h was -10%.
With `COCCN1CCC(CNC(=O)C2(c3ccc(Br)cc3)CCCC2)C1` (stereo not given) the figure was -0.291%; with `NC(=O)CN1CCCC1c1ccccc1Br` (stereo not given), 7.42%.
In the case of `COCCCSc1ccc(NCc2cscn2)cc1` it was -2.43%; in that of `COC1COC2(CCN(Cc3cccc(C#N)c3)CC2)C1` (stereo not given), -10.7%.
With `Cc1cc(C(=O)NC2CCc3c(ccc(=O)n3CC(C)C)C2)no1` (stereo not given) the figure was -4.48%; with `O=S(=O)(NCCCn1cccn1)c1ccc2c(c1)CCC2`, -5.82%; with `COc1ccc(-c2cnc(N)nc2C2CCCNC2)cc1` (stereo not given), 0.112%.
In the case of `CC(C)c1nc2n(n1)CC(NCC(=O)N(C)Cc1cccs1)CC2` (stereo not given), the cytotoxicity at 70.5 h was -13.3%.
In the case of `O=C(NCc1ccc(C(=O)N2CCCC2)cc1)c1cn2c(n1)CNCC2` it was -3.69%; in that of `CC(=O)NCCNC(=O)NCCCc1cccc(F)c1`, -5.39%; in that of `CN(CCOc1cccc(CNS(C)(=O)=O)c1)C1CCOCC1`, 1.39%.
In the case of `O=C(Cc1ccc(-n2cnnn2)cc1)Nc1cnn(CC(F)F)c1` it was -15.7%.
In the case of `CN(Cc1nnc2n1CCC2)C(=O)NCCc1ccc2c(c1)OCO2` it was -11.6%; in that of `Cc1cccc(-c2ccc(C(=O)NCC3CCCO3)c(=O)[nH]2)c1` (stereo not given), -10.2%.
With `Cc1n[nH]c(C)c1-c1cnc(C2CCN(S(C)(=O)=O)CC2)cn1`, the cytotoxicity at 70.5 h is -6.98%.
`Cc1ccc(CNCC2CCc3nnc(C(C)C)n3C2)s1` (stereo not given): the cytotoxicity at 70.5 h is -6.69%.
With `CCn1cnnc1CCNC(=O)c1ccc(F)c(Br)c1` the figure was -12.1%; with `CCCC(=O)N(C)C(c1cccc(F)c1)c1ccccn1` (stereo not given), -3.08%; with `CC(=O)N1[C@@H](C(=O)NCC2CC2)C[C@@H]2CN(Cc3nccs3)C[C@@H]21`, -9.23%.
In the case of `CS(=O)(=O)NC(=O)CCc1cccc(OC2CCCC2)c1` it was -5.51%.
With `CC(CCNC(=O)NCCc1ccc(S(N)(=O)=O)cc1)c1ccccc1` (stereo not given) the figure was -8.25%; with `O=C(NCc1ccco1)N1CCCCC1c1nc(C2CC2)no1` (stereo not given), -7.19%.
For `COC1COC2(CCN(C(=O)c3ccccc3F)CC2)C1` (stereo not given), the cytotoxicity at 70.5 h was -4.84%.
On to `CC(C)N(C)CC(=O)N1CCCC(c2ccc(C(=O)O)cc2)C1` (stereo not given), for which the cytotoxicity at 70.5 h is -5.3%.
Consider `c1cncc(CN2CCn3c(Cn4cncn4)cnc3C2)c1`, for which the cytotoxicity at 70.5 h was -7.44%.
In the case of `c1csc(CN2CCC3(CCCN(c4nncs4)C3)C2)n1` (stereo not given) it was -1.22%; in that of `COCCC(=O)N1C[C@H](C(C)C)[C@@H](N(C)C)C1`, -14.3%; in that of `CS(=O)(=O)NCc1cnc2n1CCN(Cc1cccs1)CC2`, -4.2%.
For `Cc1ncsc1CN1CC[C@H]2OCC[C@@]2(C(=O)NCC2CC2)C1`, the cytotoxicity at 70.5 h is -3.48%.
For the compound `CC(C)c1nnc2sc(CC3CN(Cc4ccccc4)CCO3)nn12` (stereo not given), the cytotoxicity at 70.5 h came to 6.69%.
In the case of `CC(C)N1CC(C(=O)NCCOc2ccc3c(c2)OCO3)CC1=O` (stereo not given) it was 1.18%; in that of `Cc1cc(C2CCCN2Cc2nc3ccccc3o2)on1` (stereo not given), 1.19%; in that of `CC(C)Cc1ncc2c(n1)CN(c1nc3ccccc3cc1CO)C2`, -14.3%.
With `Cc1[nH]ccc1C(=O)N[C@H]1CN(CCO)C[C@@H]1C1CC1`, the cytotoxicity at 70.5 h was -6.42%.
In the case of `Cn1cc(C2CN(C(=O)Cc3coc(-c4ccccc4)n3)CCO2)cn1` (stereo not given) it was 4.27%; in that of `CC(Cn1cccn1)NC(=O)NCCN1CCc2ccccc2C1` (stereo not given), 0.199%.
In the case of `CCn1cc(N2Cc3nc(N(C)C)ncc3C2=O)cn1` it was -4.06%.
As for `O=C(N[C@@H]1CCC[C@@H](N2CCOCC2)[C@@H]1O)c1cc2ccccc2[nH]1`, the cytotoxicity at 70.5 h was -5.17%.
In the case of `c1cncc(COCC2CN(Cc3ccco3)Cc3nccn3C2)c1` (stereo not given) it was -9.74%.
